These compounds were tested against T1, Cannabinoid-1 receptor (CB1R) (Rattus norvegicus, UniProt P20272) (assay: Cannabinoid-1 receptor (CB1R) binding affinity assay ([3H]CP-55940, rat CB-1 receptor binding protocol)). Conditions: IC50(nM), brain tissue of SD rats, [3H]CP-55940, 30° C. 60 min.
T1 construct: The tissue obtained from the brain of SD rats was homogenized; from tissue; host or cells: brain of SD rats (membrane pellet of the homogenate)
T1 sequence (P20272 whole entry): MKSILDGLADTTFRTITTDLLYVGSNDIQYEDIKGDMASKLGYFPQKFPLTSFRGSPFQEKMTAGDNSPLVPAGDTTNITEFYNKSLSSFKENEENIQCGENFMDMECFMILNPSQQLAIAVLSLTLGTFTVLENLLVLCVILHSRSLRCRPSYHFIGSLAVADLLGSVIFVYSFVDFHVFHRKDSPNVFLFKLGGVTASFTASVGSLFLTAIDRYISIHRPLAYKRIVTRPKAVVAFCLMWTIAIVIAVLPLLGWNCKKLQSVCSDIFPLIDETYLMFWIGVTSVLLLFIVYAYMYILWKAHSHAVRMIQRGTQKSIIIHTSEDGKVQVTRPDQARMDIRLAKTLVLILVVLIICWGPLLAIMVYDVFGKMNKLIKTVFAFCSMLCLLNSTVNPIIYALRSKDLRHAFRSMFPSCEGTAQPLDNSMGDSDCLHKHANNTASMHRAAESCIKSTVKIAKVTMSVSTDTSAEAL

SMILES | IC50 [nM]
CC(C)(C)c1nnc(-c2nn(-c3ccc(Cl)cc3Cl)c(-c3ccc(Cl)cc3)c2C2CC2)s1 [Example 441, 2-tert-butyl-5-(5-(4-chlorophenyl)-4-cyclopropyl-1-(2,4-dichlorophenyl)-1H-pyrazol-3-yl)-1,3,4-thiadiazole] | 29.8

Same assay, conditions: brain tissue of SD rats, [3H]CP-55940, 30° C. 60 min; read-out: IC50

SMILES | IC50 [nM]
COC(C)(C)c1nnc(-c2nn(-c3ccc(Cl)cc3Cl)c(-c3ccc(Cl)cc3)c2C)s1 [Example 419, 2-(5-(4-chlorophenyl)-1-(2,4-dichlorophenyl)-4-methyl-1H-pyrazol-3-yl)-5-(2-methoxypropan-2-yl)-1,3,4-thiadiazole] | 62.1
CCC(C)(C)c1nnc(-c2nn(-c3ccc(Cl)cc3Cl)c(-c3ccccc3)c2C)s1 [Example 420, 2-(1-(2,4-dichlorophenyl)-4-methyl-5-phenyl-1H-pyrazol-3-yl)-5-tert-pentyl-1,3,4-thiadiazole] | 112
Cc1c(-c2nnc(C(C)(C)C)s2)nn(-c2ccc(Cl)cc2Cl)c1-c1ccccc1 [Example 421, 2-tert-butyl-5-(1-(2,4-dichlorophenyl)-4-methyl-5-phenyl-1H-pyrazol-3-yl)-1,3,4-thiadiazole] | 160
CCC(C)c1nnc(-c2nn(-c3ccc(Cl)cc3Cl)c(-c3ccccc3)c2C)s1 (stereo not shown) [Example 422, 2-sec-butyl-5-(1-(2,4-dichlorophenyl)-4-methyl-5-phenyl-1H-pyrazol-3-yl)-1,3,4-thiadiazole] | 226
Cc1c(-c2nnc(C3CCC3)s2)nn(-c2ccc(Cl)cc2Cl)c1-c1ccccc1 [Example 423, 2-cyclobutyl-5-(1-(2,4-dichlorophenyl)-4-methyl-5-phenyl-1H-pyrazol-3-yl)-1,3,4-thiadiazole] | 168
Cc1c(-c2nnc(C3CCC3)s2)nn(-c2ccc(Cl)cc2)c1-c1ccc(Br)cc1 [Example 424, 2-(5-(4-bromophenyl)-1-(4-chlorophenyl)-4-methyl-1H-pyrazol-3-yl)-5-cyclobutyl-1,3,4-thiadiazole] | 966
Cc1c(-c2nnc(C(C)(C)C)s2)nn(-c2ccccc2Cl)c1-c1ccc(Br)cc1 [Example 425, 2-(5-(4-bromophenyl)-1-(2-chlorophenyl)-4-methyl-1H-pyrazol-3-yl)-5-tert-butyl-1,3,4-thiadiazole] | 11.2
Cc1c(-c2nnc(C3CCC3)s2)nn(-c2ccccc2Cl)c1-c1ccc(Br)cc1 [Example 427, 2-(5-(4-bromophenyl)-1-(2-chlorophenyl)-4-methyl-1H-pyrazol-3-yl)-5-cyclobutyl-1,3,4-thiadiazole] | 29.6
CCC(C)c1nnc(-c2nn(-c3ccccc3Cl)c(-c3ccc(Br)cc3)c2C)s1 (stereo not shown) [Example 428, 2-(5-(4-bromophenyl)-1-(2-chlorophenyl)-4-methyl-1H-pyrazol-3-yl)-5-sec-butyl-1,3,4-thiadiazole] | 15.7
CCC(C)(C)c1nnc(-c2nn(-c3ccccc3Cl)c(-c3ccc(Br)cc3)c2C)s1 [Example 429, 2-(5-(4-bromophenyl)-1-(2-chlorophenyl)-4-methyl-1H-pyrazol-3-yl)-5-tert-pentyl-1,3,4-thiadiazole] | 8.67
Cc1c(-c2nnc(C3(c4ccc(Cl)cc4)CC3)s2)nn(-c2ccc(Cl)cc2Cl)c1-c1ccc(Cl)cc1 [Example 430, 2-(5-(4-chlorophenyl)-1-(2,4-dichlorophenyl)-4-methyl-1H-pyrazol-3-yl)-5-(1-(4-chlorophenyl)cyclopropyl)-1,3,4-thiadiazole] | 13.9
Cc1c(-c2nnc(C3(c4ccc(Cl)cc4)CCC3)s2)nn(-c2ccc(Cl)cc2Cl)c1-c1ccc(Cl)cc1 [Example 431, 2-(5-(4-chlorophenyl)-1-(2,4-dichlorophenyl)-4-methyl-1H-pyrazol-3-yl)-5-(1-(4-chlorophenyl)cyclobutyl)-1,3,4-thiadiazole] | 7.5
CCc1c(-c2nnc(C3(c4ccc(Cl)cc4)CC3)s2)nn(-c2ccc(Cl)cc2Cl)c1-c1ccc(Br)cc1 [Example 432, 2-(5-(4-bromophenyl)-1-(2,4-dichlorophenyl)-4-ethyl-1H-pyrazol-3-yl)-5-(1-(4-chlorophenyl)cyclopropyl)-1,3,4-thiadiazole] | 7.98
Cc1c(-c2nnc(C3(c4ccc(Cl)cc4)CC3)s2)nn(-c2ccccc2Cl)c1-c1ccc(Cl)cc1 [Example 433, 2-(1-(2-chlorophenyl)-5-(4-chlorophenyl)-4-methyl-1H-pyrazol-3-yl)-5-(1-(4-chlorophenyl)cyclopropyl)-1,3,4-thiadiazole] | 7.53
Cc1c(-c2nnc(C(C)(C)C)s2)nn(-c2ccc(Cl)cc2Cl)c1-c1cccc(Cl)c1 [Example 434, 2-tert-butyl-5-(5-(3-chlorophenyl)-1-(2,4-dichlorophenyl)-4-methyl-1H-pyrazol-3-yl)-1,3,4-thiadiazole] | 172
CCC(C)c1nnc(-c2nn(-c3ccc(Cl)cc3Cl)c(-c3cccc(Cl)c3)c2C)s1 (stereo not shown) [Example 435, 2-sec-butyl-5-(5-(3-chlorophenyl)-1-(2,4-dichlorophenyl)-4-methyl-1H-pyrazol-3-yl)-1,3,4-thiadiazole] | 277
Cc1c(-c2nnc(C3CCC3)s2)nn(-c2ccc(Cl)cc2Cl)c1-c1cccc(Cl)c1 [Example 436, 2-(5-(3-chlorophenyl)-1-(2,4-dichlorophenyl)-4-methyl-1H-pyrazol-3-yl)-5-cyclobutyl-1,3,4-thiadiazole] | 893

SMILES | IC50 [nM]
CCOC(C)(C)c1nnc(-c2nn(-c3ccc(Cl)cc3Cl)c(-c3ccc(Cl)cc3)c2C)s1 [Example 437, 2-(5-(4-chlorophenyl)-1-(2,4-dichlorophenyl)-4-methyl-1H-pyrazol-3-yl)-5-(2-ethoxypropan-2-yl)-1,3,4-thiadiazole] | 53.6
CCC(C)(C)c1nnc(-c2nn(-c3ccc(Cl)cc3Cl)c(-c3cccc(Cl)c3)c2C)s1 [Example 439, 2-(5-(3-Chlorophenyl)-1-(2,4-dichlorophenyl)-4-methyl-1H-pyrazol-3-yl)-5-tert-pentyl-1,3,4-thiadiazole] | 263
Clc1ccc(-c2c(C3CC3)c(-c3nnc(C4CCCCC4)s3)nn2-c2ccc(Cl)cc2Cl)cc1 [Example 440, 2-(5-(4-chlorophenyl)-4-cyclopropyl-1-(2,4-dichlorophenyl)-1H-pyrazol-3-yl)-5-cyclohexyl-1,3,4-thiadiazole] | 11
Clc1ccc(-c2c(C3CC3)c(-c3nnc(C4CCC4)s3)nn2-c2ccc(Cl)cc2Cl)cc1 [Example 442, 2-(5-(4-chlorophenyl)-4-cyclopropyl-1-(2,4-dichlorophenyl)-1H-pyrazol-3-yl)-5-cyclobutyl-1,3,4-thiadiazole] | 18
CCC(C)c1nnc(-c2nn(-c3ccc(Cl)cc3)c(-c3ccc(Cl)cc3)c2C)s1 (stereo not shown) [Example 444, 2-(1,5-bis(4-chlorophenyl)-4-methyl-1H-pyrazol-3-yl)-5-sec-butyl-1,3,4-thiadiazole] | 292
Cc1c(-c2nnc(C3(c4ccc(Cl)cc4)CC3)s2)nn(-c2ccc(Cl)cc2)c1-c1ccc(Cl)cc1 [Example 447, 2-(1,5-bis(4-chlorophenyl)-4-methyl-1H-pyrazol-3-yl)-5-(1-(4-chlorophenyl)cyclopropyl)-1,3,4-thiadiazole] | 453
CCC(C)(C)c1nnc(-c2nn(-c3ccc(Cl)cc3)c(-c3ccc(Cl)cc3)c2C)s1 [Example 448, 2-(1,5-bis(4-chlorophenyl)-4-methyl-1H-pyrazol-3-yl)-5-tert-pentyl-1,3,4-thiadiazole] | 199
CCCOC(C)(C)c1nnc(-c2nn(-c3ccc(Cl)cc3Cl)c(-c3ccc(Cl)cc3)c2C)s1 [Example 449, 2-(5-(4-chlorophenyl)-1-(2,4-dichlorophenyl)-4-methyl-1H-pyrazol-3-yl)-5-(2-propoxypropan-2-yl)-1,3,4-thiadiazole] | 61.3
CCc1c(-c2nnc(C3(c4ccccc4)CC3)s2)nn(-c2ccc(Cl)cc2Cl)c1-c1ccc(Br)cc1 [Example 450, 2-(5-(4-bromophenyl)-1-(2,4-dichlorophenyl)-4-ethyl-1H-pyrazol-3-yl)-5-(1-phenylcyclopropyl)-1,3,4-thiadiazole] | 7.42
CCc1c(-c2nnc(C(C)(C)CC)s2)nn(-c2ccc(Cl)cc2Cl)c1-c1ccc(Br)cc1 [Example 451, 2-(5-(4-bromophenyl)-1-(2,4-dichlorophenyl)-4-ethyl-1H-pyrazol-3-yl)-5-tert-pentyl-1,3,4-thiadiazole] | 19.7
CCc1c(-c2nnc(C3CC4CCC3C4)s2)nn(-c2ccc(Cl)cc2Cl)c1-c1ccc(Br)cc1 (stereo not shown) [Example 452, 2-(bicyclo[2.2.1]heptan-2-yl)-5-(5-(4-bromophenyl)-1-(2,4-dichlorophenyl)-4-ethyl-1H-pyrazol-3-yl)-1,3,4-thiadiazole] | 54.1
CCc1c(-c2nnc(C(C)C)s2)nn(-c2ccc(Cl)cc2Cl)c1-c1ccc(Br)cc1 [Example 453, 2-(5-(4-bromophenyl)-1-(2,4-dichlorophenyl)-4-ethyl-1H-pyrazol-3-yl)-5-isopropyl-1,3,4-thiadiazole] | 27.1
CCc1c(-c2nnc(C(CC)CC)s2)nn(-c2ccc(Cl)cc2Cl)c1-c1ccc(Br)cc1 [Example 454, 2-(5-(4-bromophenyl)-1-(2,4-dichlorophenyl)-4-ethyl-1H-pyrazol-3-yl)-5-(pentan-3-yl)-1,3,4-thiadiazole] | 23.1
CCc1c(-c2nnc(C3(C)CCCCC3)s2)nn(-c2ccc(Cl)cc2Cl)c1-c1ccc(Br)cc1 [Example 455, 2-(5-(4-bromophenyl)-1-(2,4-dichlorophenyl)-4-ethyl-1H-pyrazol-3-yl)-5-(1-methylcyclohexyl)-1,3,4-thiadiazole] | 14.5
C=CCOC(C)(C)c1nnc(-c2nn(-c3ccc(Cl)cc3Cl)c(-c3ccc(Cl)cc3)c2C)s1 [Example 456, 2-(2-(allyloxy)propan-2-yl)-5-(5-(4-chlorophenyl)-1-(2,4-dichlorophenyl)-4-methyl-1H-pyrazol-3-yl)-1,3,4-thiadiazole] | 61
CCCCOC(C)(C)c1nnc(-c2nn(-c3ccc(Cl)cc3Cl)c(-c3ccc(Cl)cc3)c2C)s1 [Example 457, 2-(2-butoxypropan-2-yl)-5-(5-(4-chlorophenyl)-1-(2,4-dichlorophenyl)-4-methyl-1H-pyrazol-3-yl)-1,3,4-thiadiazole] | 16.9

— US7875647B2, “Heteroaryl-pyrazole derivatives as cannabinoid CB1 receptor antagonists” (Green Cross Corporation, priority 2006, dated 2011)
